Experiment [1] concerns the target T1, γ-secretase in the HeLa membrane (Homo sapiens, UniProt P05067). Nature of the experiment: AlphaLISA γ-secretase assay with biotinylated Sb4 (APP sequence) substrate. The class given is biochemical. More on the design: fused on or other part: Biotin label on Sb4. The conditions noted are these: from lower IC50 for Aβ42 than Aβ40. The text has this:
(§1) Referring now to FIG. 1, and without wishing to be bound by theory, γ-secretase cleaves within the transmembrane domain of the amyloid precursor protein (APPTM) to release Aβ, which aggregates to form neurotoxic oligomers and fibrils. […] Formula III decreased the production of Aβ40 and Aβ42 by γ-secretase in a dose dependent manner (FIG. 2).
For orientation: In Alpha technology, singlet oxygen from a donor bead excites a nearby acceptor bead.

Experiment [2] has as its target T1, γ-secretase in the HeLa membrane. The description is as above. The following applies: γ-secretase in HeLa membrane, Sb4 substrate. The class given is biochemical. More on the design: other: γ-secretase in HeLa membrane, Sb4 substrate; fused on or other part: Biotin label on Sb4.
Source text: as §1

SMILES strings stand for the structures. pIC50: −log10 of the molar value. Like-named read-outs stand apart in the source and are kept apart here.

T1 sequence (P05067 whole entry, the tested form may be a part): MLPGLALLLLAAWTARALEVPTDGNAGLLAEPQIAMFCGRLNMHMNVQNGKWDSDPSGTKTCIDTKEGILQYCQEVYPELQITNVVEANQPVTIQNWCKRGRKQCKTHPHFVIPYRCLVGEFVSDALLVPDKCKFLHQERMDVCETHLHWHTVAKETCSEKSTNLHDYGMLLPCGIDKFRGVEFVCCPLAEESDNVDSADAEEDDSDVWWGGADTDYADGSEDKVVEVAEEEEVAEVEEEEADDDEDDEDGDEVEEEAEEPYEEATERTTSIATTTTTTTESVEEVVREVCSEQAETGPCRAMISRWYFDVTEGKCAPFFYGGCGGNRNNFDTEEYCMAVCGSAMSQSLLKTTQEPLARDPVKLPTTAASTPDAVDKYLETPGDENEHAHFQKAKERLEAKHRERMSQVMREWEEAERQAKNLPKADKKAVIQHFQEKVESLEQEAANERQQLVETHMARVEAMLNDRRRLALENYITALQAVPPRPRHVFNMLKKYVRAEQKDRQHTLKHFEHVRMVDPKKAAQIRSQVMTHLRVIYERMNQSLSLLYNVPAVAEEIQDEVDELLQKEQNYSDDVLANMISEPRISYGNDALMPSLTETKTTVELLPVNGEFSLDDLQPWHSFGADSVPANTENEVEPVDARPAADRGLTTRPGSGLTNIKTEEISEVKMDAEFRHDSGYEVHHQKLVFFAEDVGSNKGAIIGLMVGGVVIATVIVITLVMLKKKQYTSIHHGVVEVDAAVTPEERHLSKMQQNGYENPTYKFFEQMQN

Broadly, the pIC50 is the IC50 on a negative log10 scale, so that one unit is a factor of ten. With `O=C(C=COc1ccc2ccccc2c1)c1ccc(F)cc1` [Formula III], the “selectivity in inhibiting Aβ42 production over Aβ40” value in experiment [1] is recorded as “selectivity in inhibiting Aβ42 production over Aβ40”. Further, the results for the negative-log IC50 (pIC50) in experiment [2] (read-out: IC50 for the inhibition of Aβ40 production) and in experiment [2] (read-out: IC50 for the inhibition of Aβ42 production) were 5.41 and 5.72, respectively.
